According to patent US11279681B2, “3-alkyl bicyclic [4,5,0] hydroxamic acids as HDAC inhibitors” (Valo Health, Inc., priority 2015, dated 2022):

Each compound was assayed against T1, HDAC6 (Homo sapiens, UniProt Q9UBN7) (assay: In vitro histone deacetylase assay: enzymatic HDAC6 electrophoretic mobility shift assay). Settings: full length human recombinant HDAC6, 1 nM enzyme, 2 μM peptide substrate RHKK(Ac)-NH2, 25° C.; read-out: Inhibitory Concentration (IC50) Values for Representative Compounds against HDAC6, Activity Range.
T1 sequence (Q9UBN7 1-1215): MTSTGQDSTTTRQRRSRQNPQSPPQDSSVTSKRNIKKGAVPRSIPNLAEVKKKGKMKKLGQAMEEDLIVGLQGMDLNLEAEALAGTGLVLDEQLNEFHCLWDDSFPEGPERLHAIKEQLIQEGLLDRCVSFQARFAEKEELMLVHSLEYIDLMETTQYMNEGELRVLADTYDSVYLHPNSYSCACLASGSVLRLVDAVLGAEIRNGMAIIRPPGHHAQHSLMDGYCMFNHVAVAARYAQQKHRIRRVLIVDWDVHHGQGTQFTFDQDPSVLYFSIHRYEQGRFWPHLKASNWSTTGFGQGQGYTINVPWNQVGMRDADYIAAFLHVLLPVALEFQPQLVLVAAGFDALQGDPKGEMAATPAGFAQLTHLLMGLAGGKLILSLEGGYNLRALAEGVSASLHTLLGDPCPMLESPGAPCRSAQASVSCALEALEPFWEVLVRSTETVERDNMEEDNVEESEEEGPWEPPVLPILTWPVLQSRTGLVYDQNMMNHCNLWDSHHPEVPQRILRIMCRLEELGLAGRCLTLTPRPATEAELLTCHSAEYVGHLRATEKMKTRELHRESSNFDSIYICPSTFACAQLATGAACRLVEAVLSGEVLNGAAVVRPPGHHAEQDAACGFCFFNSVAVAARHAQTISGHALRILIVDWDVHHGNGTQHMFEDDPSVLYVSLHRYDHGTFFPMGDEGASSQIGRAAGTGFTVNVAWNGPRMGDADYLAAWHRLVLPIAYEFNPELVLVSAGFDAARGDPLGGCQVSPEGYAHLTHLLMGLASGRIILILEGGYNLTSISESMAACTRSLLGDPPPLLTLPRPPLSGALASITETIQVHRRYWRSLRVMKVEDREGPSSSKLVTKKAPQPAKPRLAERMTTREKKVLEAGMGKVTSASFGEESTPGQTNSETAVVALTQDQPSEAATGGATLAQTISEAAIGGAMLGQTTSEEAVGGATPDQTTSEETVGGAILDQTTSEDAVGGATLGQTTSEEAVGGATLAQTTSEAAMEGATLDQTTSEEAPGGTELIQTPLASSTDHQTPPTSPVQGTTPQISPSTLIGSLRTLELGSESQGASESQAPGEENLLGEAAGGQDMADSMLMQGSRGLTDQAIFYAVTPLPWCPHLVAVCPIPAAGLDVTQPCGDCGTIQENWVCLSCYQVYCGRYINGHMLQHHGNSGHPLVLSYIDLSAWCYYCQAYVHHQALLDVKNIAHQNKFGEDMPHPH
Assay type: biochemical

| Compound | IC50 [nM] |
| --- | --- |
| COCCN1Cc2ccc(C(=O)NO)cc2OC[C@@H]1C [(S)-N-hydroxy-4-(2-methoxyethyl)-3-methyl-2,3,4,5-tetrahydrobenzo[f][1,4]oxazepine-8-carboxamide] | ≤ 100 |
| COc1ccccc1N1Cc2ccc(C(=O)NO)cc2OC[C@@H]1C [(S)-N-hydroxy-4-(2-methoxyphenyl)-3-methyl-2,3,4,5-tetrahydrobenzo[f][1,4]oxazepine-8-carboxamide] | ≤ 100 |
| COC1CN(C(=O)N2Cc3ccc(C(=O)NO)cc3OC[C@@H]2C)C1 [(S)-N-hydroxy-4-(3-methoxyazetidine-1-carbonyl)-3-methyl-2,3,4,5-tetrahydrobenzo[f][1,4]oxazepine-8-carboxamide] | ≤ 100 |
| COCCCN1Cc2ccc(C(=O)NO)cc2OC[C@@H]1C [(S)-N-hydroxy-4-(3-methoxypropyl)-3-methyl-2,3,4,5-tetrahydrobenzo[f][1,4]oxazepine-8-carboxamide] | 100 to 500 |
| COC[C@H]1COc2cc(C(=O)NO)ccc2CN1Cc1ccc(OC)cc1 [(S)-N-hydroxy-4-(4-methoxybenzyl)-3-(methoxymethyl)-2,3,4,5-tetrahydrobenzo[f][1,4]oxazepine-8-carboxamide] | ≤ 100 |
| COc1ccc(CN2CCOc3cc(C(=O)NO)ccc3[C@@H]2C)cc1 [(S)-N-hydroxy-4-(4-methoxybenzyl)-5-methyl-2,3,4,5-tetrahydrobenzo[f][1,4]oxazepine-8-carboxamide] | 100 to 500 |
| COC1CCN(C(=O)N2Cc3ccc(C(=O)NO)cc3OC[C@@H]2C)CC1 [(S)-N-hydroxy-4-(4-methoxypiperidine-1-carbonyl)-3-methyl-2,3,4,5-tetrahydrobenzo[f][1,4]oxazepine-8-carboxamide] | ≤ 100 |
| COCCS(=O)(=O)N1Cc2ccc(C(=O)NO)cc2OC[C@@H]1C [(S)-N-hydroxy-4-((2-methoxyethyl)sulfonyl)-3-methyl-2,3,4,5-tetrahydrobenzo[f][1,4]oxazepine-8-carboxamide] | 100 to 500 |
| C[C@H]1COc2cc(C(=O)NO)ccc2CN1C(=O)N1Cc2ccccc2C1 [(S)-N-hydroxy-4-(isoindoline-2-carbonyl)-3-methyl-2,3,4,5-tetrahydrobenzo[f][1,4]oxazepine-8-carboxamide] | ≤ 100 |
| CC(C)CN1Cc2ccc(C(=O)NO)cc2OC[C@@H]1C [(S)-N-hydroxy-4-isobutyl-3-methyl-2,3,4,5-tetrahydrobenzo[f][1,4]oxazepine-8-carboxamide] | ≤ 100 |
| CC(C)N1Cc2ccc(C(=O)NO)cc2OC[C@@H]1C [(S)-N-hydroxy-4-isopropyl-3-methyl-2,3,4,5-tetrahydrobenzo[f][1,4]oxazepine-8-carboxamide] | > 500 |
| C[C@H]1CN(C)Cc2ccc(C(=O)NO)cc2O1 [(S)—N-hydroxy-2,4-dimethyl-2,3,4,5-tetrahydrobenzo[f][1,4]oxazepine-8-carboxamide] | > 500 |
| C[C@H]1CNCc2ccc(C(=O)NO)cc2O1 [(S)—N-hydroxy-2-methyl-2,3,4,5-tetrahydrobenzo[f][1,4]oxazepine-8-carboxamide] | 100 to 500 |
| C[C@H]1COc2cc(C(=O)NO)ccc2CN1C [(S)—N-hydroxy-3,4-dimethyl-2,3,4,5-tetrahydrobenzo[f][1,4]oxazepine-8-carboxamide] | 100 to 500 |
| C[C@H]1COc2cc(C(=O)NO)ccc2CN1 [(S)—N-hydroxy-3-methyl-2,3,4,5-tetrahydrobenzo[f][1,4]oxazepine-8-carboxamide] | 100 to 500 |
| O=C(NO)c1ccc2c(c1)OCCNC2 [N-hydroxy-2,3,4,5-tetrahydrobenzo[f][1,4]oxazepine-8-carboxamide] | 100 to 500 |
| O=C1CN(C(=O)N2CCCCC2)Cc2cc(C(=O)NO)ccc2N1 [N-hydroxy-2-oxo-4-(piperidine-1-carbonyl)-2,3,4,5-tetrahydro-1H-benzo[e][1,4]diazepine-7-carboxamide] | 100 to 500 |
| O=C1CN(c2ccccc2)Cc2cc(C(=O)NO)ccc2N1 [N-hydroxy-2-oxo-4-phenyl-2,3,4,5-tetrahydro-1H-benzo[e][1,4]diazepine-7-carboxamide] | > 500 |
| CN1Cc2ccc(C(=O)NO)cc2OCC1(C)C [N-hydroxy-3,3,4-trimethyl-2,3,4,5-tetrahydrobenzo[f][1,4]oxazepine-8-carboxamide] | ≤ 100 |

The remaining lines, values ahead:

| IC50 [nM] | Compound |
| --- | --- |
| ≤ 100 | CC1(C)COc2cc(C(=O)NO)ccc2CN1 [N-hydroxy-3,3-dimethyl-2,3,4,5-tetrahydrobenzo[f][1,4]oxazepine-8-carboxamide] |
| 100 to 500 | COCCN1CCOc2cc(C(=O)NO)ccc2C1 [N-hydroxy-4-(2-methoxyethyl)-2,3,4,5-tetrahydrobenzo[f][1,4]oxazepine-8-carboxamide] |
| ≤ 100 | CC1CCCCN1C(=O)N1CCOc2cc(C(=O)NO)ccc2C1 (centres unmarked) [N-hydroxy-4-(2-methylpiperidine-1-carbonyl)-2,3,4,5-tetrahydrobenzo[f][1,4]oxazepine-8-carboxamide] |
| 100 to 500 | CC1COCCN1C(=O)N1CCOc2cc(C(=O)NO)ccc2C1 (centres unmarked) [N-hydroxy-4-(3-methylmorpholine-4-carbonyl)-2,3,4,5-tetrahydrobenzo[f][1,4]oxazepine-8-carboxamide] |
| ≤ 100 | COc1ccc(CN2Cc3ccc(C(=O)NO)cc3OCC23CC3)cc1 [N-hydroxy-4-(4-methoxybenzyl)-4,5-dihydro-2H-spiro[benzo[f][1,4]oxazepine-3,1′-cyclopropane]-8-carboxamide] |
| 100 to 500 | COC1CCN(C(=O)N2CCOc3cc(C(=O)NO)ccc3C2)CC1 [N-hydroxy-4-(4-methoxypiperidine-1-carbonyl)-2,3,4,5-tetrahydrobenzo[f][1,4]oxazepine-8-carboxamide] |
| > 500 | CN1CCN(C(=O)N2CCOc3cc(C(=O)NO)ccc3C2)CC1 [N-hydroxy-4-(4-methylpiperazine-1-carbonyl)-2,3,4,5-tetrahydrobenzo[f][1,4]oxazepine-8-carboxamide] |
| ≤ 100 | O=C(NO)c1ccc2c(c1)OCCN(C(=O)N1Cc3ccccc3C1)C2 [N-hydroxy-4-(isoindoline-2-carbonyl)-2,3,4,5-tetrahydrobenzo[f][1,4]oxazepine-8-carboxamide] |
| 100 to 500 | O=C(NO)c1ccc2c(c1)OCCN(C(=O)N1CCOCC1)C2 [N-hydroxy-4-(morpholine-4-carbonyl)-2,3,4,5-tetrahydrobenzo[f][1,4]oxazepine-8-carboxamide] |
| 100 to 500 | Cc1ccc(N2CCOc3cc(C(=O)NO)ccc3C2)cc1 [N-hydroxy-4-(p-tolyl)-2,3,4,5-tetrahydrobenzo[f][1,4]oxazepine-8-carboxamide] |
| 100 to 500 | O=C(NO)c1ccc2c(c1)OCCN(c1ccccn1)C2 [N-hydroxy-4-(pyridin-2-yl)-2,3,4,5-tetrahydrobenzo[f][1,4]oxazepine-8-carboxamide] |
| 100 to 500 | O=C(NO)c1ccc2c(c1)OCCN(c1cccnc1)C2 [N-hydroxy-4-(pyridin-3-yl)-2,3,4,5-tetrahydrobenzo[f][1,4]oxazepine-8-carboxamide] |
| > 500 | O=C(NO)c1ccc2c(c1)OCCN(c1ccncc1)C2 [N-hydroxy-4-(pyridin-4-yl)-2,3,4,5-tetrahydrobenzo[f][1,4]oxazepine-8-carboxamide] |
| ≤ 100 | O=C(NO)c1ccc2c(c1)OCCN(C(=O)N1CCCC1)C2 [N-hydroxy-4-(pyrrolidine-1-carbonyl)-2,3,4,5-tetrahydrobenzo[f][1,4]oxazepine-8-carboxamide] |
| 100 to 500 | CN1CCOc2cc(C(=O)NO)ccc2C1 [N-hydroxy-4-methyl-2,3,4,5-tetrahydrobenzo[f][1,4]oxazepine-8-carboxamide] |
| ≤ 100 | CN1Cc2ccc(C(=O)NO)cc2OCC12CC2 [N-hydroxy-4-methyl-4,5-dihydro-2H-spiro[benzo[f][1,4]oxazepine-3,1′-cyclopropane]-8-carboxamide] |
| > 500 | O=C(NO)c1ccc2c(c1)OCCN(c1ccccc1)C2 [N-hydroxy-4-phenyl-2,3,4,5-tetrahydrobenzo[f][1,4]oxazepine-8-carboxamide] |
| 100 to 500 | O=C(NO)c1ccc2c(c1)OCC1(CC1)N(c1ccccc1)C2 [N-hydroxy-4-phenyl-4,5-dihydro-2H-spiro[benzo[f][1,4]oxazepine-3,1′-cyclopropane]-8-carboxamide] |
| ≤ 100 | C[C@H]1COc2cc(C(=O)NO)ccc2CN1C(=O)OC1CCC1 [cyclobutyl(S)-8-(hydroxycarbamoyl)-3-methyl-2,3-dihydrobenzo[f][1,4]oxazepine-4(5H)-carboxylate] |
